This passage reports inhibition results from article PMC6934184, “Selective DNA-PKcs inhibition extends the therapeutic index of localized radiotherapy and chemotherapy” (The Journal of Clinical Investigation, 2019).

This assay deals with T1, EPHA3 (Homo sapiens, UniProt P29320).
T1 construct: purchased Thermo Fisher Scientific (Life Technologies) SelectScreen
The experiment in a line: SelectScreen LanthaScreen. The assay is classed as binding. The settings on record: read-out: % displacement. The method, boiled down: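 SelectScreen broad panel; activity (Z'LYTE, Adapta) plus binding formats. ATP: Km app for CSF1R Z'LYTE; 10 for CAMK1 Adapta. Readout = % per kinase.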
On the technique in general: TR-FRET usually uses a lanthanide donor and a delayed reading to cut background.

T1 sequence (P29320 21-983): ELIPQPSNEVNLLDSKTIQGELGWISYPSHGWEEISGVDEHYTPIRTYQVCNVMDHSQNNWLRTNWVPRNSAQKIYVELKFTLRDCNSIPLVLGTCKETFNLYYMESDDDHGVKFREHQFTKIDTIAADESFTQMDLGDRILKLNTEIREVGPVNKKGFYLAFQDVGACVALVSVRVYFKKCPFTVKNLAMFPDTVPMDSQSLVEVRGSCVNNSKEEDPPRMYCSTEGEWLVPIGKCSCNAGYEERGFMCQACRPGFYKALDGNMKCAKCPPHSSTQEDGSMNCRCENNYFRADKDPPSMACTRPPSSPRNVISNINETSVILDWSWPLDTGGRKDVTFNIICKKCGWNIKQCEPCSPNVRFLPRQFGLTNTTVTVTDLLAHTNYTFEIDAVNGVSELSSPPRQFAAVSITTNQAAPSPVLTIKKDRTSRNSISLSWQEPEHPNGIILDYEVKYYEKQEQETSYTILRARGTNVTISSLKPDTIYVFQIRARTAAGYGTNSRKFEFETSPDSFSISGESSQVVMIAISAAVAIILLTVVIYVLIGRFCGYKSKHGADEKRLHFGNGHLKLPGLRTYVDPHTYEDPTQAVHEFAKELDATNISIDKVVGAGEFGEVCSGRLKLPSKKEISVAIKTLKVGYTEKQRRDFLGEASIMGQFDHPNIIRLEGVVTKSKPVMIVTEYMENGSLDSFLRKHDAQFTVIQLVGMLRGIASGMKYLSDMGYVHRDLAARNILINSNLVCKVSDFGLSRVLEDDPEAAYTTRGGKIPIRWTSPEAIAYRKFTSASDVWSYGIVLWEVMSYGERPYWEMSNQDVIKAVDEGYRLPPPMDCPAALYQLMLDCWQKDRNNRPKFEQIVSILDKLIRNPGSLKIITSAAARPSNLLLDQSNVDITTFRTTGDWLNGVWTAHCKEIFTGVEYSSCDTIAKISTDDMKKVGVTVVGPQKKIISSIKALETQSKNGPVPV

`CN(C(=O)CN1CCOCC1)c1ccc2sc3c(-c4cccc5c(=O)cc(N6CC7CCC(C6)O7)oc45)cccc3c2c1` [NU5455]: the inhibition at 1 µM was -0.3%.
